Data from patent US4617302A, “Inotropic agents” (Eli Lilly and Company, priority 1984, dated 1986).

Legend:
[1] = system: conscious dogs (contractility, LVdP/dt); assay: Cardiac contractility in conscious dogs; assay type: in vivo; conditions: Canis lupus familiaris, po; conscious mongrel dogs, fasted eighteen hours, administered in gelatin capsules; by interpolation; read-out: ED50, dose required to produce a 50-percent increase in contractility
Description: Mongrel dogs of either sex weighing 15-36 kg were chronically instrumented to monitor peak systolic pressure, heart rate, left ventricular pressure and its first derivative, LVdP/dt at 60 mm of mercury. Under halothane-nitrous oxide anesthesia, a precalibrated Konigsberg P22 Pressure Transducer was implanted into the left ventricle through a stab wound at the apex. Following recovery from surgery, a minimum of two weeks was allowed to train the dogs to lie quietly for four-hour periods. This conditioning was necessary to obtain stable, reproducible results from day to day. Dogs were fasted eighteen hours before an experiment. Gross behavioral observations of animals were made throughout each study. Compounds or placebo (lactose) were administered in gelatin capsules. The maximum effects on contractility at various dose levels were determined and plotted and the dose required to produce a 50-percent increase in contractility (ED50) was determined by interpolation. The ED50 for the compound of Example 1 was determined to be 50 mcg/kg.

[2] = system: anesthetized dog (ventricular contractility); assay: Ventricular contractility in the anesthetized dog; assay type: in vivo; conditions: Canis lupus familiaris, iv; anesthetized mongrel dogs, i.v. bolus in normal saline; by interpolation; read-out: ED50, dose required to produce a peak increase in contractility of 50%
Method: Mongrel dogs of either sex ranging in weight from 7 to 14 kg were used. Anesthesia was induced with sodium pentobarbital (30 mg/kg, i.v.) and maintained with supplemental doses as required. A positive-pressure pump was used to ventilate the dogs through an endotracheal tube (18 strokes/minute, 20 ml/kg stroke^-1), and a heating pad kept the body temperature at 37°-38° C.
Femoral arterial blood pressure was measured through a polyethylene catheter filled with heparin solution (16 units/ml) and connected to a Statham pressure transducer. A strain-gauge arch sutured to the right ventricle of the heart measured cardiac contractility. Tension on the gauge was adjusted to 50 g and the gain of the recorder (Beckman dynograph) was set so that 50 g caused a 10-mm pen deflection. Cardiac contractile tension was measured as millimeters of pen deflection or grams of tension. The test compounds were administered as an i.v. bolus (2-5 ml) in a normal saline vehicle following a 30-45 minute equilibrium period. […] The maximum effects on contractility at various dose levels were determined and plotted and the dose required to produce a 50% increase in contractility (ED50) was determined by interpolation.

Cat Papillary Muscles = assay: Positive inotropic activity in isolated cat papillary muscles; conditions: Felis catus, control = 100 percent, average of 2 to 8 muscles, read-out: Contractility of Papillary Muscle, peak response as percent of control; for activity at 100 µM: Compound Concentration 10^-4 M; for activity at 10 µM: Compound Concentration 10^-5 M
Method: Cats of either sex were anesthetized with Metofane (1,1-difluoro-2,2-dichloroethyl methyl ether, Pittman-Moore). Their hearts were immediately removed and the papillary muscles dissected and suspended in individual organ baths. A platinum hook secured one end of the muscle to an electrode mounted in the bottom of the bath, and a silk thread attached the tendon to a Statham isometric transducer. The baths contained Krebs-Henseleit solution (36° C., bubbled with 95 percent oxygen - 5 percent carbon dioxide) of the following millimolar composition: NaCl, 118; KCl, 4.5; CaCl2, 2.5; KH2 PO4, 1.1; MgSO4, 1.2; NaHCO3, 25; and glucose, 11.
A base-line tension of 1.5 g was applied to each muscle. Square-wave pulses (5.0 msec. in duration, three times threshold voltage) delivered through the hook electrode and a second electrode positioned near the top of the muscle evoked 12 contractions/minute, which were recorded on a Grass polygraph. After the muscles had equilibrated for 60 minutes, the recorder gain was adjusted so that the pen deflected 10 mm. The test compound was introduced in a solution of normal saline in an amount to bring the final concentration of the compound to 10^-5 or 10^-4 molar. Increases in contractility were tabulated as millimeters of pen deflection in excess of the baseline value. In each experiment the maximum contractility was measured. Test results are summarized in Table I and are expressed as percent of control (control=100 percent). Values are the average of results from 2 to 8 muscles.

Q: For `O=C1CCC(c2ccc3c(c2)C2(CC2)C(=O)N3)=NN1` [Example 1, 5'-(1,4,5,6-tetrahydro-6-oxo-3-pyridazinyl)-spiro[cyclopropane-1,3'-[3H]indol]-2'(1'H)-one], which ED50 [1] is on record?
A: 0.05 mg/kg

Q: What about the ED50 [2] of the same compound?
A: 0.0019 mg/kg

Q: Which activity at 100 µM (Cat Papillary Muscles) does the source give for `O=C1CCC(c2ccc3c(c2)C2(CCC2)C(=O)N3)=NN1` [Example 3, 5'-(1,4,5,6-tetrahydro-6-oxo-3-pyridazinyl)-spiro[cyclobutane-1,3'-[3H]indol]-2'(1'H)-one] here?
A: 132%

Q: What about the activity at 10 µM (Cat Papillary Muscles) of the same compound?
A: 138%

Q: And the ED50 [2]?
A: 0.025 mg/kg

Q: `O=C1CCC(c2ccc3c(c2)C2(CCCC2)C(=O)N3)=NN1` [Example 2, 5'-(1,4,5,6-tetrahydro-6-oxo-3-pyridazinyl)-spiro[cyclopentane-1,3'-[3H]indol]-2'(1'H)-one] was tested. Which activity at 100 µM (Cat Papillary Muscles) did it give?
A: 134%

Q: What about the activity at 10 µM (Cat Papillary Muscles) of the same compound?
A: 132%

Q: And the ED50 [2]?
A: 0.07 mg/kg
